Reference: ChEMBL document CHEMBL2016512, “Calcitonin gene-related peptide (CGRP) receptor antagonists: novel aspartates and succinates” (Bioorg Med Chem Lett, 2012)

Tests used:
[1] = molecular target: T1, Calcitonin gene-related peptide type 1 receptor (Homo sapiens, UniProt O60894+Q16602); experiment: Displacement of [125]CGRP from human CGRP receptor expressed in human SK-N-MC cell membrane after 2 hrs by scintillation counting; type: cell membranes
[2] = molecular target: T1, Calcitonin gene-related peptide type 1 receptor; experiment: Antagonist activity at human CGRP receptor expressed in human SK-N-MC cells assessed as inhibition of CGRP-stimulated cAMP production; type: functional, cell-based
[3] = Solubility of the compound; type: physicochemical
[4] = test system: Caco-2; experiment: Permeability across human Caco2 cells; type: ADME, cell-based
[5] = Aqueous solubility of the compound; type: physicochemical; details: buffer

T1 sequence (Q16602 whole entry, one chain of several): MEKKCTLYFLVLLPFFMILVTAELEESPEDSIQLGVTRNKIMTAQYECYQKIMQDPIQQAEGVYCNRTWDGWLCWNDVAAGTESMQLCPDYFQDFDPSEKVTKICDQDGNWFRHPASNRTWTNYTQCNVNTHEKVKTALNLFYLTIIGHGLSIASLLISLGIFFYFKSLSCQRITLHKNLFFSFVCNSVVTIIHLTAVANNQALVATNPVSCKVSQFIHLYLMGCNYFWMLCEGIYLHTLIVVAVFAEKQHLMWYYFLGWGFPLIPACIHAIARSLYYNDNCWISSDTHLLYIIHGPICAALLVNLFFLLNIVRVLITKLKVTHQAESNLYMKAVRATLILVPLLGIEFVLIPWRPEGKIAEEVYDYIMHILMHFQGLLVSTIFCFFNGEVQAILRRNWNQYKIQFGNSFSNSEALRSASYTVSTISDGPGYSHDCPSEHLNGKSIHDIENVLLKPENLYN

| SMILES | IC50 [1] | IC50 [2] | solubility [3] | permeability [4] | solubility [5] |
| --- | --- | --- | --- | --- | --- |
| O=C(C[C@H](NCc1ccccn1)C(=O)N1CCC(N2CCCCC2)CC1)N1CCC(N2Cc3ccccc3NC2=O)CC1 | 700 nM |  |  |  |  |
| O=C(C[C@H](NCc1ccc2[nH]ccc2c1)C(=O)N1CCC(N2CCCCC2)CC1)N1CCC(N2Cc3ccccc3NC2=O)CC1 | 380 nM |  |  |  |  |
| O=C(C[C@H](NCc1ccc2[nH]ncc2c1)C(=O)N1CCC(N2CCCCC2)CC1)N1CCC(N2Cc3ccccc3NC2=O)CC1 | 130 nM | 300 nM |  |  |  |
| O=C(C[C@H](NC1CCC(O)CC1)C(=O)N1CCC(N2CCCCC2)CC1)N1CCC(N2Cc3ccccc3NC2=O)CC1 (stereo not given in full) | 4500 nM |  |  |  |  |
| O=C(N[C@@H](CC(=O)N1CCC(N2Cc3ccccc3NC2=O)CC1)C(=O)N1CCC(N2CCCCC2)CC1)c1ccc(F)c(F)c1 | 430 nM |  |  |  |  |
| CC(C)(C)OC(=O)N[C@@H](CC(=O)N1CCC(N2Cc3ccccc3NC2=O)CC1)C(=O)N1CCC(N2CCCCC2)CC1 | 590 nM |  |  |  |  |
| O=C(N[C@@H](CC(=O)N1CCC(N2Cc3ccccc3NC2=O)CC1)C(=O)N1CCC(N2CCCCC2)CC1)Oc1ccccc1 | 280 nM |  |  |  |  |
| O=C(Nc1cccc(Cl)c1Cl)N[C@@H](CC(=O)N1CCC(N2Cc3ccccc3NC2=O)CC1)C(=O)N1CCC(N2CCCCC2)CC1 | 97 nM |  | Insoluble | impermeable |  |
| O=C(Nc1ccc(Cl)cc1Cl)N[C@@H](CC(=O)N1CCC(N2Cc3ccccc3NC2=O)CC1)C(=O)N1CCC(N2CCCCC2)CC1 | 36 nM |  | Insoluble | impermeable |  |
| O=C(Nc1ccccc1F)N[C@@H](CC(=O)N1CCC(N2Cc3ccccc3NC2=O)CC1)C(=O)N1CCC(N2CCCCC2)CC1 | 45 nM |  | Insoluble | impermeable |  |
| O=C(Nc1ccccc1Cl)N[C@@H](CC(=O)N1CCC(N2Cc3ccccc3NC2=O)CC1)C(=O)N1CCC(N2CCCCC2)CC1 |  | 100 nM | Insoluble | impermeable |  |
| O=C(C[C@H](Nc1cc(Cl)ncn1)C(=O)N1CCC(N2CCCCC2)CC1)N1CCC(N2Cc3ccccc3NC2=O)CC1 | 98 nM | 46 nM |  |  |  |
| O=C(C[C@H](Nc1ccncn1)C(=O)N1CCC(N2CCCCC2)CC1)N1CCC(N2Cc3ccccc3NC2=O)CC1 | 1400 nM |  |  |  |  |
| O=C(C[C@H](Nc1ccc(Cl)cc1[N+](=O)[O-])C(=O)N1CCC(N2CCCCC2)CC1)N1CCC(N2Cc3ccccc3NC2=O)CC1 | 32 nM | 32 nM |  |  |  |
| O=C(C[C@H](Nc1nc(Cl)nc2[nH]ncc12)C(=O)N1CCC(N2CCCCC2)CC1)N1CCC(N2Cc3ccccc3NC2=O)CC1 | 250 nM | 99 nM |  |  |  |
| Cc1nc(N[C@@H](CC(=O)N2CCC(N3Cc4ccccc4NC3=O)CC2)C(=O)N2CCC(N3CCCCC3)CC2)nc(N)c1[N+](=O)[O-] | 80 nM |  |  |  |  |
| Cc1nc(N[C@@H](CC(=O)N2CCC(N3Cc4ccccc4NC3=O)CC2)C(=O)N2CCC(N3CCCCC3)CC2)nc2nn[nH]c12 | 73 nM | 120 nM |  |  |  |
| O=C(C[C@H](Nc1ccc2[nH]ccc2c1)C(=O)N1CCC(N2CCCCC2)CC1)N1CCC(N2Cc3ccccc3NC2=O)CC1 | 180 nM | 59 nM |  |  |  |
| O=C(C[C@H](Nc1ccc2[nH]ncc2c1)C(=O)N1CCC(N2CCCCC2)CC1)N1CCC(N2Cc3ccccc3NC2=O)CC1 | 170 nM | 230 nM |  |  |  |
| O=C(C[C@H](Nc1cccc2ncccc12)C(=O)N1CCC(N2CCCCC2)CC1)N1CCC(N2Cc3ccccc3NC2=O)CC1 | 890 nM |  |  |  |  |

| SMILES | IC50 [1] | IC50 [2] | solubility [3] | permeability [4] | solubility [5] |
| --- | --- | --- | --- | --- | --- |
| O=C(C[C@H](Nc1ccc(Br)c2ccccc12)C(=O)N1CCC(N2CCCCC2)CC1)N1CCC(N2Cc3ccccc3NC2=O)CC1 | 120 nM |  |  |  |  |
| O=C(C[C@H](Nc1cccc2ccccc12)C(=O)N1CCC(N2CCCCC2)CC1)N1CCC(N2Cc3ccccc3NC2=O)CC1 | 220 nM |  |  |  |  |
| Cc1cc(C[C@@H](CC(=O)N2CCC(N3Cc4ccccc4NC3=O)CC2)C(=O)N2CCC(N3CCCCC3)CC2)cc2cn[nH]c12 | 0.06 nM | 0.019 nM |  | impermeable | Insoluble |
| Cc1cc(C[C@H](CC(=O)N2CCC(N3Cc4ccccc4NC3=O)CC2)C(=O)N2CCC(N3CCCCC3)CC2)cc2cn[nH]c12 | 11 nM | 11 nM |  | impermeable | Insoluble |
| Cc1cc(C[C@@H](CC(=O)N2CCC(N3Cc4cccc(F)c4NC3=O)CC2)C(=O)N2CCC(N3CCCCC3)CC2)cc2cn[nH]c12 | 0.2 nM | 0.082 nM |  | impermeable | Insoluble |
| Cc1cc(C[C@H](CC(=O)N2CCC(N3Cc4cccc(F)c4NC3=O)CC2)C(=O)N2CCC(N3CCCCC3)CC2)cc2cn[nH]c12 | 6.7 nM | 4.6 nM |  | impermeable | Insoluble |
| Cc1cc(CC(CC(=O)N2CCC3(CC2)OC(=O)Nc2ccccc23)C(=O)N2CCC(N3CCCCC3)CC2)cc2cn[nH]c12 (racemic) | 0.33 nM | 0.7 nM |  |  |  |
| Cc1cc(CC(CC(=O)N2CCC(N3Cc4ccccc4NC3=O)CC2)C(=O)N2CCC(N3CCCCC3)CC2)cc2cn[nH]c12 (racemic) | 0.074 nM | 0.068 nM |  |  |  |
| Cc1cc(CC(CC(=O)N2CCC(N3Cc4cccc(F)c4NC3=O)CC2)C(=O)N2CCC(N3CCCCC3)CC2)cc2cn[nH]c12 (racemic) | 0.18 nM | 0.089 nM |  |  |  |
| Cc1cc(CC(CC(=O)N2CCC3(CC2)NC(=O)Nc2ccccc23)C(=O)N2CCC(N3CCCCC3)CC2)cc2cn[nH]c12 (racemic) | 0.34 nM | 0.35 nM |  |  |  |
| Cc1cc(CC(CC(=O)N2CCC(n3cc(-c4ccccc4)[nH]c3=O)CC2)C(=O)N2CCC(N3CCCCC3)CC2)cc2cn[nH]c12 (racemic) | 0.15 nM | 0.049 nM |  |  |  |
| Cc1cc(CC(CC(=O)N2CCC(c3cc4ccccc4[nH]c3=O)CC2)C(=O)N2CCC(N3CCCCC3)CC2)cc2cn[nH]c12 (racemic) | 0.3 nM | 0.12 nM |  |  |  |
| Cc1cc(CC(CC(=O)N2CCC(N3Cc4ccccc4NC3=O)CC2)C(=O)N2CCC3(CC2)OCCO3)cc2cn[nH]c12 (racemic) | 3.2 nM | 5.8 nM |  |  |  |
| Cc1cc(CC(CC(=O)N2CCC3(CC2)OC(=O)Nc2ccccc23)C(=O)N2CCC3(CC2)OCCO3)cc2cn[nH]c12 (racemic) | 5.9 nM | 8.8 nM |  |  |  |
| Cc1cc(CC(CC(=O)N2CCC(N3Cc4ccccc4NC3=O)CC2)C(=O)N2CCC(C)CC2)cc2cn[nH]c12 (racemic) | 2.7 nM | 2 nM |  |  |  |
| Cc1cc(CC(CC(=O)N2CCC3(CC2)OC(=O)Nc2ccccc23)C(=O)N2CCCCC2)cc2cn[nH]c12 (racemic) | 19 nM | 34 nM |  |  |  |
| Cc1cc(CC(CC(=O)N2CCC(N3Cc4ccccc4NC3=O)CC2)C(=O)N2CCCCC2)cc2cn[nH]c12 (racemic) | 3.7 nM | 6.9 nM |  |  |  |
| O=C1Nc2ccccc2C2(CCN(C(=O)CC(Cc3ccc4[nH]ncc4c3)C(=O)N3CCC(N4CCCCC4)CC3)CC2)O1 (racemic) | 15 nM | 53 nM |  |  |  |
| O=C(CC(Cc1ccc2[nH]ncc2c1)C(=O)N1CCC2(CC1)OCCO2)N1CCC(N2Cc3ccccc3NC2=O)CC1 (racemic) | 87 nM | 320 nM |  |  |  |
| O=C1Nc2ccccc2C2(CCN(C(=O)CC(Cc3ccc4[nH]ncc4c3)C(=O)N3CCC4(CC3)OCCO4)CC2)O1 (racemic) | 460 nM |  |  |  |  |
